From the NIST ThermoML archive (doi:10.1016/j.jct.2010.11.007)
“And” between values parts separate entries of the source, which are not always exact repeats. Equal values may be shown once.

What was measured:
[1] = 101.33 kPa, Liquid; for speed of sound: Sing-around technique in a fixed-path interferometer; for mass density: Vibrating tube method
[2] = refractive index (Na D-line) (dimensionless); conditions: 101.33 kPa, Liquid, Standard Abbe refractometry
[3] = xn = mol fraction of the nth substance listed; conditions: Liquid, x2 = 0; for speed of sound: Sing-around technique in a fixed-path interferometer; for mass density: Vibrating tube method
[4] = refractive index (Na D-line) (dimensionless); xn = mol fraction of the nth substance listed; conditions: 101 kPa, Liquid, Standard Abbe refractometry, x2 = 0

CCCO [propan-1-ol]
Conditions | mass density, [1] [kg/m3] | refractive index, [2] | speed of sound, [1] [m/s]
283.15 K | 811.52 | 1.38906 | 1257.9
298.15 K | 799.56 | 1.38288 | 1206.3
313.15 K | 787.33 | 1.3766 | 1156.8
328.15 K | 774.69 | 1.37015 | 1106.8

CCCO [propan-1-ol] + C=CC(C)(O)CCC=C(C)C
[3]
Conditions | mass density, 101 kPa [kg/m3] | mass density, 20000 kPa [kg/m3] | mass density, 25000 kPa [kg/m3] | mass density, 30000 kPa [kg/m3] | mass density, 35000 kPa [kg/m3] | mass density, 40000 kPa [kg/m3] | speed of sound, 101 kPa [m/s]
283.15 K | 811.52 | 825.3 | 828.5 | 831.5 | 834.5 | 837.4 | 1258
298.15 K | 799.56 | 814.3 | 817.8 | 821 | 824.1 | 827.3 | 1206.3
313.15 K | 787.34 | 803.3 | 806.9 | 810.4 | 813.8 | 817 | 1156.8
328.15 K | 774.69 | 792.1 | 795.9 | 799.6 | 803.2 | 806.6 | 1106.8

[4]
Conditions | refractive index
283.15 K | 1.38906
298.15 K | 1.38288
313.15 K | 1.3766
328.15 K | 1.37015

C=CC(C)(O)CCC=C(C)C (stereo unspecified) [3,7-dimethyl-1,6-octadien-3-ol]
Conditions | mass density, [1] [kg/m3] | refractive index, [2] | speed of sound, [1] [m/s]
283.15 K | 869.39 | 1.46659 and 1.4666 | 1370.3
298.15 K | 857 | 1.45946 | 1315.1
313.15 K | 844.29 | 1.45215 | 1260.8
328.15 K | 831.31 | 1.44473 | 1207.6
